Reference: patent US20250235460A1, “COMBINATION THERAPY USING GLUCOSE-DEPENDENT INSULINOTROPIC POLYPEPTIDE RECEPTOR ANTAGONIST COMPOUNDS AND GLP-1 RECEPTOR AGONIST COMPOUNDS” (Pfizer Inc., priority 2024, published 2025)

How the values were obtained:
human GLP-1R [1] = biological target: human GLP-1R (Homo sapiens, UniProt P43220, L260F); assay: CHO GLP-1R Clone C6 cAMP HTRF agonist assay (Assay 2, low receptor density); format: cell-based; details: for EC50: geometric mean; for Emax: CHO GLP-1R clone C6, arithmetic mean, relative to saturating GLP-1 (1 μM)
From the text: In Table 5 and Table 6, assay data are presented to two (2) significant figures as the geometric mean (EC50s) and arithmetic mean (Emax) based on the number of replicates listed (Number). A blank cell means there was no data for that Example or the Emax was not calculated.

human GLP-1R [2] = biological target: human GLP-1R (Homo sapiens, UniProt P43220, G168S); assay: CHO GLP-1R Clone H6 cAMP HTRF agonist assay (Assay 1, high receptor density); format: cell-based; details: for EC50: geometric mean; for Emax: CHO GLP-1R clone H6, arithmetic mean, relative to saturating GLP-1 (1 μM), read-out: Assay 1 Emax (%)
Outline: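 EC50 values are reported as geometric means and Emax as arithmetic means across the listed number of replicates, both given to two significant figures.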

Chain of human GLP-1R (Homo sapiens, UniProt P43220, G168S) (P43220 24-463 G168S): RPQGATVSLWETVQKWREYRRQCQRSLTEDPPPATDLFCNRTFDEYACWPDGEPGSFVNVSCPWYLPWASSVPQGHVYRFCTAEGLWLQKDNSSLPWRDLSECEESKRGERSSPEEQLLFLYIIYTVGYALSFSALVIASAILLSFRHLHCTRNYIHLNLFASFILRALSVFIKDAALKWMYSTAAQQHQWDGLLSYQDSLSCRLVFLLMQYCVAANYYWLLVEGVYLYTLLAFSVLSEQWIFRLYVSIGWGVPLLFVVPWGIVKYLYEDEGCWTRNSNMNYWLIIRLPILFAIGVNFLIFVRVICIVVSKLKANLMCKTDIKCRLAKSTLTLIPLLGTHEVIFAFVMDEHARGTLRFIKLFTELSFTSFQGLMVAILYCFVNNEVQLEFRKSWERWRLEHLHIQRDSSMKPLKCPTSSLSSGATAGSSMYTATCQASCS
Chain of human GLP-1R (Homo sapiens, UniProt P43220, L260F) (P43220 24-463 L260F): as the sequence (P43220 24-463 G168S) above, with S145G, L237F counted along it

Row | Compound | EC50 (human GLP-1R [1]; CHO GLP-1R clone C6, cAMP HTRF) [nM] | Emax (human GLP-1R [1]) [%] | EC50 (human GLP-1R [2]; CHO GLP-1R clone H6, cAMP HTRF) [nM] | Emax (human GLP-1R [2]) [%] | EC50 (human GLP-1R [1]; CHO GLP-1R clone, low receptor density, cAMP HTRF) [nM] | EC50 (human GLP-1R [2]; CHO GLP-1R clone, cAMP HTRF) [nM]
1 | COCCn1c(CN2CC[C@H](c3cccc(OCc4ccc(Cl)cc4F)n3)[C@@H](O)C2)nc2ccc(C(=O)O)cc21 (racemic) [Compound 190B, rac-2-{[(3S,4S)-4-{6-[(4-chloro-2-fluorobenzyl)oxy]pyridin-2-yl}-3-hydroxypiperidin-1-yl]methyl}-1-(2-methoxyethyl)-1H-benzimidazole-6-carboxylic acid] | 68 | 81 | 2.8 | 82 |  | 
2 | Cc1n[nH]c(Cn2c(CN3CCC(c4cccc(OCc5ccc(Cl)cc5F)n4)CC3)nc3ccc(C(=O)O)cc32)n1 [Compound 334B, 2-[(4-{6-[(4-chloro-2-fluorobenzyl)oxy]pyridin-2-yl}piperidin-1-yl)methyl]-1-[(3-methyl-1H-1,2,4-triazol-5-yl)methyl]-1H-benzimidazole-6-carboxylic acid] | 570 | 93 | 30 | 73 |  | 
3 | COCCn1c(CN2CCN(c3ccc(F)c(OCc4ccc(C#N)cc4)n3)C[C@@H]2C)nc2ccc(C(=O)O)cc21 [Compound 175B, 2-{[(2S)-4-{6-[(4-cyanobenzyl)oxy]-5-fluoropyridin-2-yl}-2-methylpiperazin-1-yl]methyl}-1-(2-methoxyethyl)-1H-benzimidazole-6-carboxylic acid] | 2100 | 71 | 170 | 78 |  | 
4 | C[C@H]1CN(c2cccc(OCc3ccc(C#N)cc3F)n2)CCN1Cc1nc2ccc(C(=O)O)cc2n1Cc1ncco1 [Compound 146B, 2-{[(2S)-4-{6-[(4-cyano-2-fluorobenzyl)oxy]pyridin-2-yl}-2-methylpiperazin-1-yl]methyl}-1-(1,3-oxazol-2-ylmethyl)-1H-benzimidazole-6-carboxylic acid] | 680 | 110 | 43 | 82 |  | 
5 | N#Cc1ccc(COc2cccc(C3CCN(Cc4nc5ccc(C(=O)O)cc5n4C[C@@H]4CCCO4)CC3)n2)cc1 [Compound 131B, 2-[(4-{6-[(4-cyanobenzyl)oxy]pyridin-2-yl}piperidin-1-yl)methyl]-1-[(2S)-tetrahydrofuran-2-ylmethyl]-1H-benzimidazole-6-carboxylic acid] | 1000 | 84 | 45 | 65 |  | 
6 | N#Cc1ccc(COc2cccc(C3CCN(Cc4nc5ccc(C(=O)O)cc5n4C[C@@H]4CCCO4)CC3)n2)c(F)c1 [Compound 124B, 2-[(4-{6-[(4-cyano-2-fluorobenzyl)oxy]pyridin-2-yl}piperidin-1-yl)methyl]-1-[(2S)-tetrahydrofuran-2-ylmethyl]-1H-benzimidazole-6-carboxylic acid] | 110 | 94 | 6.4 | 90 |  | 
7 | O=C(O)c1ccc2nc(CN3CCC(c4cccc(OCc5ccc(F)cc5F)n4)CC3)n(C[C@@H]3CCO3)c2c1 [Compound 117B, 2-[(4-{6-[(2,4-difluorobenzyl)oxy]pyridin-2-yl}piperidin-1-yl)methyl]-1-[(2S)-oxetan-2-ylmethyl]-1H-benzimidazole-6-carboxylic acid] | 530 | 97 | 19 | 76 |  | 
8 | C[C@H]1CN(c2cccc(OCc3ccc(C#N)cc3F)n2)CCN1Cc1nc2ccc(C(=O)O)nc2n1Cc1ncco1 [Compound 215B, 2-{[(2S)-4-{6-[(4-cyano-2-fluorobenzyl)oxy]pyridin-2-yl}-2-methylpiperazin-1-yl]methyl}-3-(1,3-oxazol-2-ylmethyl)-3H-imidazo [4,5-b]pyridine-5-carboxylic acid] |  | 89 | 3.4 | 73 |  | 
9 | CCn1cnnc1Cn1c(CN2CCC(c3cccc(OCc4ccc(Cl)cc4F)n3)CC2)nc2ccc(C(=O)O)cc21 [Compound 237B, 2-[(4-{6-[(4-chloro-2-fluorobenzyl)oxy]pyridin-2-yl}piperidin-1-yl)methyl]-1-[(4-ethyl-4H-1,2,4-triazol-3-yl)methyl]-1H-benzimidazole-6-carboxylic acid] | 39 | 88 | 3.2 | 68 |  | 
10 | N#Cc1ccc(COc2cccc(C3CCN(Cc4nc5ccc(C(=O)O)cc5n4Cc4ncco4)CC3)n2)c(F)c1 [Compound 139B, 2-[(4-{6-[(4-cyano-2-fluorobenzyl)oxy]pyridin-2-yl}piperidin-1-yl)methyl]-1-(1,3-oxazol-2-ylmethyl)-1H-benzimidazole-6-carboxylic acid] | 1200 | 44 | 150 | 74 |  | 
11 | COCCn1c(CN2CCC(c3cccc(OCc4ccc(C#N)cc4)n3)CC2)nc2cc(F)c(C(=O)O)cc21 [Compound 211B, 2-[(4-{6-[(4-cyanobenzyl)oxy]pyridin-2-yl}piperidin-1-yl)methyl]-5-fluoro-1-(2-methoxyethyl)-1H-benzimidazole-6-carboxylic acid] | 870 | 83 | 50 | 81 |  | 
12 | CN1CCCC(Cn2c(CN3CCC(c4cccc(OCc5ccc(Cl)cc5F)n4)CC3)nc3ccc(C(=O)O)cc32)C1 (stereo not shown) [Compound 279B, 2-[(4-{6-[(4-chloro-2-fluorobenzyl)oxy]pyridin-2-yl}piperidin-1-yl)methyl]-1-[(1-methylpiperidin-3-yl)methyl]-1H-benzimidazole-6-carboxylic acid] | 410 | 75 | 11 | 71 |  | 

Second part, the compound after the results:

Row | EC50 (human GLP-1R [1]; CHO GLP-1R clone C6, cAMP HTRF) [nM] | Emax (human GLP-1R [1]) [%] | EC50 (human GLP-1R [2]; CHO GLP-1R clone H6, cAMP HTRF) [nM] | Emax (human GLP-1R [2]) [%] | EC50 (human GLP-1R [1]; CHO GLP-1R clone, low receptor density, cAMP HTRF) [nM] | EC50 (human GLP-1R [2]; CHO GLP-1R clone, cAMP HTRF) [nM] | Compound
13 | 120 | 80 | 5.2 | 66 |  |  | COCCn1c(CN2CCN(c3cccc(OCc4ccc(Cl)cc4F)n3)C[C@@H]2C(C)C)nc2ccc(C(=O)O)cc21 [Compound 351B, 2-{[(2S)-4-{6-[(4-chloro-2-fluorobenzyl)oxy]pyridin-2-yl}-2-(propan-2-yl)piperazin-1-yl]methyl}-1-(2-methoxyethyl)-1H-benzimidazole-6-carboxylic acid]
14 |  |  |  |  | 1.1 | 0.079 | CCn1cncc1Cn1c(CN2CCC(c3cccc4c3OC(C)(c3ccc(Cl)cc3F)O4)CC2)nc2ccc(C(=O)O)cc21 (single isomer, unassigned; ent-1) [Compound 21B, Ammonium 2-({4-[2-(4-chloro-2-fluorophenyl)-2-methyl-1,3-benzodioxol-4-yl]piperidin-1-yl}methyl)-1-[(1-ethyl-1H-imidazol-5-yl)methyl]-1H-benzimidazole-6-carboxylate, ENT-1]
15 | 3100 | 110 | 87 |  |  |  | O=C(O)c1ccc2nc(CN3CCC(c4cccc(OCc5ccc(Cl)cc5F)n4)CC3)n(CCN3CCOC3=O)c2c1 [Compound 295B, 2-[(4-{6-[(4-chloro-2-fluorobenzyl)oxy]pyridin-2-yl}piperidin-1-yl)methyl]-1-[2-(2-oxo-1,3-oxazolidin-3-yl)ethyl]-1H-benzimidazole-6-carboxylic acid]
16 | 72 | 87 | 5 | 65 |  |  | Cc1nnc(Cn2c(CN3CCC(c4cccc(OCc5ccc(Cl)cc5F)n4)CC3)nc3ccc(C(=O)O)cc32)o1 [Compound 254B, 2-[(4-{6-[(4-chloro-2-fluorobenzyl)oxy]pyridin-2-yl}piperidin-1-yl)methyl]-1-[(5-methyl-1,3,4-oxadiazol-2-yl)methyl]-1H-benzimidazole-6-carboxylic acid]
17 | 3000 | 92 | 110 | 71 |  |  | CCn1cncc1Cn1c(CN2CCC(c3cccc(OCc4ccc(F)cc4F)n3)CC2)nc2ccc(C(=O)O)cc21 [Compound 150B, 2-[(4-{6-[(2,4-difluorobenzyl)oxy]pyridin-2-yl}piperidin-1-yl)methyl]-1-[(1-ethyl-1H-imidazol-5-yl)methyl]-1H-benzimidazole-6-carboxylic acid]
